Experimental data published in PubChem BioAssay AID200 (DTP/NCI, 2004).
Where “and” joins values, the source holds several entries; their conditions need not be identical. Equal values may be shown once. Toxic doses and inconclusive results are not listed. Where a SMILES comes first, the peptide text is derived from it. [ ]: non-standard residue; d: D form. The star is where a group is joined. Cbz = O=C(OCc1ccccc1)*; Nva = CCC[CH](N)C(=O)O

Test system: B6C3F1 mice, B16 melanoma ip, median survival T/C
Experiment: NCI In Vivo Anticancer Drug Screen. Data for tumor model B16 Melanoma (intraperitoneal) in B6C3F1 mice
Conditions: endpoint: median survival time, higher = longer survival
How it was run: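 Values are T/C ratios: the measurement in treated animals divided by that in vehicle-treated controls, using survival or tumor size in mice carrying transplantable tumors.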

[1] = dose: 25.0 mg/kg/injection, schedule: Q01DX009 (ip), vehicle: saline
[2] = dose: 50.0 mg/kg/injection, schedule: Q01DX009 (ip), vehicle: saline
[3] = dose: 100.0 mg/kg/injection, schedule: Q01DX009 (ip), vehicle: saline
[4] = dose: 200.0 mg/kg/injection, schedule: Q01DX009 (ip), vehicle: saline
[5] = dose: 800.0 mg/kg/injection, schedule: Q01DX009 (ip), vehicle: saline
[6] = dose: 400.0 mg/kg/injection, schedule: Q01DX009 (ip), vehicle: saline with Tween-80
[7] = dose: 3.12 mg/kg/injection, schedule: Q01DX009 (ip), vehicle: saline with Tween-80
[8] = dose: 6.25 mg/kg/injection, schedule: Q01DX009 (ip), vehicle: saline with Tween-80
[9] = dose: 12.5 mg/kg/injection, schedule: Q01DX009 (ip), vehicle: saline with Tween-80
[10] = dose: 50.0 mg/kg/injection, schedule: Q01DX009 (ip), vehicle: saline with Tween-80
[11] = dose: 25.0 mg/kg/injection, schedule: Q01DX009 (ip), vehicle: saline with Tween-80
[12] = dose: 400.0 mg/kg/injection, schedule: Q01DX009 (ip), vehicle: saline
[13] = dose: 12.5 mg/kg/injection, schedule: Q01DX009 (ip), vehicle: saline
[14] = dose: 100.0 mg/kg/injection, schedule: Q01DX009 (ip), vehicle: saline with Tween-80
[15] = dose: 200.0 mg/kg/injection, schedule: Q01DX009 (ip), vehicle: saline with Tween-80
[16] = dose: 100.0 mg/kg/injection, schedule: Q01DX009 (ip), vehicle: Klucel (hydroxypropylcellulose) (HPC)

In the case of `CCCCCCCCCCC(OC(C)=O)C1CCC(C2CCC(C(O)CCCCCCCCCCCCC3C=C(C)OC3=O)O2)O1` (stereo unspecified), the T/C (dose: 0.25 mg/kg/injection, schedule: Q01DX009 (ip), vehicle: water) is reported as 97 % of control, the T/C (dose: 0.5 mg/kg/injection, schedule: Q01DX009 (ip), vehicle: water) is reported as 95 % of control and the T/C (dose: 1.0 mg/kg/injection, schedule: Q01DX009 (ip), vehicle: water) is reported as 93 % of control. For the same compound, the T/C (dose: 2.0 mg/kg/injection, schedule: Q01DX009 (ip), vehicle: water) was 100 % of control and the T/C (dose: 4.0 mg/kg/injection, schedule: Q01DX009 (ip), vehicle: water) was 100 % of control.

For `CC(=O)NCCCCCCNC(C)=O`, the T/C [1] was 108 % of control, the T/C [2] was 97 % of control and the T/C [3] was 106 % of control. For the same compound, the T/C [4] was 106 % of control and the T/C [5] was 179 % of control.

With `CC(=O)Oc1[nH]c(=O)c2cccc3c2c1CCC3` the T/C [6] was 120 % of control.

`Nc1cc2c3c(cccc3c1)C(=O)N(CCN1CCCC1)C2=O` was tested, and the T/C [7] was 113 % of control and 106 % of control, the T/C [8] was 97 % of control and 98 % of control and the T/C [9] was 115 % of control and 107 % of control. The T/C [10] was 122 % of control.

`O=C1C=C2C(=CCOC2O)O1` (stereo unspecified) was tested, and the T/C (dose: 0.25 mg/kg/injection, schedule: Q01DX009 (ip), vehicle: Klucel (hydroxypropylcellulose) (HPC)) was 95 % of control and 97 % of control, the T/C (dose: 0.5 mg/kg/injection, schedule: Q01DX009 (ip), vehicle: Klucel (hydroxypropylcellulose) (HPC)) was 94 % of control and 98 % of control and the T/C (dose: 1.0 mg/kg/injection, schedule: Q01DX009 (ip), vehicle: Klucel (hydroxypropylcellulose) (HPC)) was 99 % of control and 100 % of control. The T/C (dose: 2.0 mg/kg/injection, schedule: Q01DX009 (ip), vehicle: Klucel (hydroxypropylcellulose) (HPC)) was 97 % of control and the T/C (dose: 4.0 mg/kg/injection, schedule: Q01DX009 (ip), vehicle: Klucel (hydroxypropylcellulose) (HPC)) was 91 % of control.

`CCCCCCCCCCCCNCCCc1ccccc1` was tested, and the T/C [9] was 94 % of control and the T/C [11] was 93 % of control.

For `CCCCCC[C@@H](O)C/C=C\CCCCCCCC(=O)OCCO`, the T/C [1] was 101 % of control, the T/C [2] was 110 % of control and the T/C (dose: 75.0 mg/kg/injection, schedule: Q01DX009 (ip), vehicle: saline) was 102 % of control. The T/C [3] was 122 % of control, the T/C (dose: 150.0 mg/kg/injection, schedule: Q01DX009 (ip), vehicle: saline) was 97 % of control and the T/C [4] was 101 % of control. The T/C (dose: 300.0 mg/kg/injection, schedule: Q01DX009 (ip), vehicle: saline) was 100 % of control, the T/C [12] was 103 % of control and the T/C (dose: 600.0 mg/kg/injection, schedule: Q01DX009 (ip), vehicle: saline) was 95 % of control. The T/C [5] was 96 % of control and the T/C (dose: 1200.0 mg/kg/injection, schedule: Q01DX009 (ip), vehicle: saline) was 96 % of control.

`COc1cc(C)c2c(c1C=O)Oc1c(c(C)c(O)c3c1C(O)OC3=O)OC2=O` (stereo unspecified) was tested, and the T/C (dose: 3.12 mg/kg/injection, schedule: Q01DX009 (ip), vehicle: saline) was 94 % of control, the T/C (dose: 6.25 mg/kg/injection, schedule: Q01DX009 (ip), vehicle: saline) was 100 % of control and the T/C [13] was 105 % of control. The T/C [1] was 98 % of control and the T/C [2] was 98 % of control.

`COc1cccc2c1C(=O)c1c(O)c3c(c(O)c1C2=O)C[C@@](O)(C(=O)CO)C[C@@H]3OC1CC(OC(C)=O)C(OC(C)=O)C(C)O1` (stereo partly specified) was tested, and the T/C (dose: 6.25 mg/kg/injection, schedule: Q01DX009 (ip), vehicle: distilled water + Tween-80) was 178 % of control, the T/C (dose: 12.5 mg/kg/injection, schedule: Q01DX001 (ip), vehicle: distilled water + Tween-80) was 150 % of control and the T/C (dose: 25.0 mg/kg/injection, schedule: Q01DX001 (ip), vehicle: distilled water + Tween-80) was 159 % of control and 195 % of control. The T/C (dose: 50.0 mg/kg/injection, schedule: Q01DX001 (ip), vehicle: distilled water + Tween-80) was 176 % of control and 202 % of control.

`CC(C)NC(=O)OCc1c(COC(=O)NC(C)C)c(-c2ccc(Cl)c(Cl)c2)n2c1C[C@@H](O)C2` was tested, and the T/C (dose: 5.0 mg/kg/injection, schedule: Q01DX009 (ip), vehicle: water) was 160 % of control, the T/C (dose: 10.0 mg/kg/injection, schedule: Q01DX009 (ip), vehicle: water) was 196 % of control and the T/C (dose: 20.0 mg/kg/injection, schedule: Q01DX009 (ip), vehicle: Klucel (hydroxypropylcellulose) (HPC)) was 196 % of control. The T/C (dose: 20.0 mg/kg/injection, schedule: Q01DX009 (ip), vehicle: water) was 289 % of control, the T/C (dose: 40.0 mg/kg/injection, schedule: Q01DX009 (ip), vehicle: Klucel (hydroxypropylcellulose) (HPC)) was 223 % of control and the T/C (dose: 40.0 mg/kg/injection, schedule: Q01DX009 (ip), vehicle: water) was 191 % of control. The T/C (dose: 80.0 mg/kg/injection, schedule: Q01DX009 (ip), vehicle: Klucel (hydroxypropylcellulose) (HPC)) was 101 % of control.

With `N#CC(=C1C=CC(=NO)C=C1)c1ccc(Cl)cc1` the T/C [8] was 101 % of control, the T/C [9] was 105 % of control and the T/C [11] was 99 % of control. For the same compound, the T/C [10] was 99 % of control, the T/C [14] was 98 % of control and the T/C [15] was 97 % of control.

For `CCCC(NC(=O)OCc1ccccc1)C(=O)NC(C(=O)O)C(C)CC` (stereo unspecified) (Cbz-[Nva]-Ile-OH; configuration not given here), the T/C [16] was 101 % of control and the T/C (dose: 200.0 mg/kg/injection, schedule: Q01DX009 (ip), vehicle: Klucel (hydroxypropylcellulose) (HPC)) was 109 % of control.

For `CCOC(=O)N(CCCCCCNC(c1ccccc1)S(=O)(=O)O)c1ccccc1` (stereo unspecified), the T/C (dose: 25.0 mg/kg/injection, schedule: Q01DX009 (ip), vehicle: Klucel (hydroxypropylcellulose) (HPC)) was 96 % of control, the T/C (dose: 50.0 mg/kg/injection, schedule: Q01DX009 (ip), vehicle: Klucel (hydroxypropylcellulose) (HPC)) was 100 % of control and the T/C [16] was 100 % of control.

`O=[N+]([O-])c1ccc(N2CCOCC2)c2c1no[n+]2[O-]` was tested, and the T/C [9] was 99 % of control, the T/C [11] was 101 % of control and the T/C [10] was 98 % of control. The T/C [14] was 104 % of control.

In the case of `OC(CCl)CN1CC[N+]2(CC1)CC[N+]1(CCN(CC(O)CCl)CC1)CC2` (stereo unspecified), the T/C (dose: 4.68 mg/kg/injection, schedule: Q01DX009 (ip), vehicle: saline) is reported as 118 % of control, the T/C (dose: 9.37 mg/kg/injection, schedule: Q01DX009 (ip), vehicle: saline) is reported as 106 % of control and the T/C [13] is reported as 172 % of control. For the same compound, the T/C (dose: 18.75 mg/kg/injection, schedule: Q01DX009 (ip), vehicle: saline) was 98 % of control, the T/C [1] was 183 % of control and the T/C (dose: 37.5 mg/kg/injection, schedule: Q01DX009 (ip), vehicle: saline) was 106 % of control.

For `C=CCCC(=O)CCCC(=O)O[C@@H]1[C@@H]2[C@H](CC1(C)C)[C@H](O)[C@@]13O[C@@H]1[C@H](O)[C@@]1(CO1)[C@@]23C`, the T/C (dose: 3.12 micrograms/kg/injection, schedule: Q01DX009 (ip), vehicle: saline) was 97 % of control, the T/C (dose: 6.25 micrograms/kg/injection, schedule: Q01DX009 (ip), vehicle: saline) was 91 % of control and the T/C (dose: 12.5 micrograms/kg/injection, schedule: Q01DX009 (ip), vehicle: saline) was 103 % of control. For the same compound, the T/C (dose: 25.0 micrograms/kg/injection, schedule: Q01DX009 (ip), vehicle: Klucel (hydroxypropylcellulose) (HPC)) was 98 % of control, the T/C (dose: 25.0 micrograms/kg/injection, schedule: Q01DX009 (ip), vehicle: saline) was 93 % of control and the T/C (dose: 50.0 micrograms/kg/injection, schedule: Q01DX009 (ip), vehicle: Klucel (hydroxypropylcellulose) (HPC)) was 91 % of control. For the same compound, the T/C (dose: 50.0 micrograms/kg/injection, schedule: Q01DX009 (ip), vehicle: saline) was 97 % of control, the T/C (dose: 100.0 micrograms/kg/injection, schedule: Q01DX009 (ip), vehicle: saline) was 98 % of control and the T/C (dose: 200.0 micrograms/kg/injection, schedule: Q01DX009 (ip), vehicle: Klucel (hydroxypropylcellulose) (HPC)) was 98 % of control. The T/C (dose: 400.0 micrograms/kg/injection, schedule: Q01DX009 (ip), vehicle: Klucel (hydroxypropylcellulose) (HPC)) was 96 % of control.

`O=c1nc(Oc2ccccc2)nc2ncccn12` was tested, and the T/C [7] was 108 % of control and 101 % of control and 102 % of control.

`O=NNc1ccc(Br)cn1` was tested, and the T/C (dose: 1.56 mg/kg/injection, schedule: Q01DX009 (ip), vehicle: water) was 110 % of control and 112 % of control, the T/C (dose: 3.12 mg/kg/injection, schedule: Q01DX009 (ip), vehicle: water) was 119 % of control and 124 % of control and the T/C (dose: 12.5 mg/kg/injection, schedule: Q01DX009 (ip), vehicle: water) was 158 % of control and 170 % of control.

For `Cn1cnc([N+](=O)[O-])c1SCC(=O)O`, the T/C [9] was 104 % of control, the T/C [13] was 109 % of control and the T/C [11] was 89 % of control. For the same compound, the T/C [1] was 114 % of control, the T/C [10] was 103 % of control and the T/C [2] was 122 % of control. The T/C [14] was 98 % of control, the T/C [3] was 108 % of control and the T/C [15] was 97 % of control. For the same compound, the T/C [4] was 104 % of control, the T/C [6] was 97 % of control and the T/C [12] was 99 % of control.
